Measured values: patent US20130317027A1, “COMPOUNDS AND THERAPEUTIC USES THEREOF” (Myrexis, Inc, priority 2010, published 2013)
pIC50: −log10 of the molar value.

Experiments:
HCT116 cells [1] = assay: Synergy between Nampt inhibitor and chemotherapeutic compounds (MacSynergy II, CellTiter-Glo); type: cell-based; conditions: combined with a known Nampt inhibitor
Description: Experiments were conducted in HCT116 cells. […] Prior to combinations of compounds, dose curves of cells treated with a single compound were generated to define relevant compound doses to use in the combination analysis. Typically, relevant doses were those found in the inflection portion of a sigmoidal dose-response curve. Utilizing these optimized conditions, cells were dosed with Nampt inhibitor plus the test compound at a variety of concentrations of each, and viability was assessed using CellTiter-Glo. Data was processed using the MacSynergy™ II algorithm, which subtracted from actual data a prediction of compound additivity.

Human NAMPT = target: T1, Human NAMPT (Homo sapiens, UniProt P43490); assay: Nampt Activity Assay (coupled enzyme, resazurin/diaphorase fluorometric detection of NADH); type: biochemical; conditions: read-out: vitro IC50 (Nampt activity assay)
T1 construct: 6xHis (N); made in house; host or cells: E. coli BL21-AI
Description: 5-phosphoribosyl-1-pyrophosphate (PRPP), ATP, NaM, NaMN, Triton X-100, UDP-glucose and diaphorase were purchased from Sigma-Aldrich, St. Louis, Mo. Human NAMPT, NMN adenylyltransferase (NMNAT1) and UDP-glucose dehydrogenase (UGDH) encoding DNAs were each inserted into a house-modified E. Coli expression vector such that the expressed proteins carried an N-terminal 6×His tag. The His-tagged proteins were expressed in the BL21-AI E. Coli expression strain (Invitrogen Corporation, Carlsbad, Calif.) following induction by 0.2% L-arabinose and 0.5 mM IPTG at 30° C. Proteins were purified on Ni-NTA resin (Qiagen, Germantown, Md.).
The assay for Nampt catalytic activity was constructed based on a previously published coupled enzyme fluorometric technique, which employs NADH as ultimate analyte (Revollo, J. R. et al. Biol. Chem. 279, 50754-50763 (2004)). A substantial improvement in assay sensitivity was achieved by switching from direct detection to a resazurin/diaphorase-based fluorometric detection system for NADH (Guilbault, G. G., and Kramer, D. N. Anal. Chem. 37, 1219-1221 (1965)). The standard inhibition analyses were performed in a real-time mode in 96-well microtiter plates using 50 mM Tris-HCl, pH 7.5, 1% DMSO (v/v), 0.01% Triton X-100 (v/v), 10 mM MgCl2, 2 mM ATP, […], […], […], as well as the following detection reagents: 5 nM Nmnat, 200 nM Ugdh, 200 µM UDP-glucose, 0.02 U/mL diaphorase and […]. Incubation of samples at room temperature for up to 3 hours was followed by quantification of fluorescence intensities at excitation and emission wavelengths of 510 nm and 590 nm, respectively, using Gemini XS plate reader (Molecular Devices, Sunnyvale, Calif.). The counter-assay intended to disqualify false positives, such as inhibitors of detection enzymes or fluorescence quenchers, was carried out essentially as described above with an exception that 1 μM NaMN was substituted for Nampt.

[2] = Cytotoxicity Assay (CellTiter-Glo, 72 hour drug incubation); conditions: human, HCT116 cells
Description: (§1) HCT116 cells were seeded in 96 well plates (Greiner Bio-One, Monroe, N.C.) and allowed to settle overnight. Test compound dissolved in dimethyl sulfoxide (DMSO) was added and drug incubation proceeded for 72 hours. […] After 72 hour, 50 L of CellTiter-Glo Luminescent Cell Viability Assay reagent (Promega Corporation, Madison, Wis.) was added to cells in 200 L of cellular media. After a proscribed incubation period, luminescence was measured using a TopCount NXT plate reader (PerkinElmer, Waltham, Mass.).

PARP = conditions: in vitro and in vivo models of cerebral ischemia; cited from earlier work
HCT116 cells [3] = system: HCT116 cells
Description: as §1

PARP in HCT116 cells = assay: PARP activation by 5-FU; type: cell-based
Description: Kim, M. Y. et al. Genes & Development 19:1951-67 (2005)). […] TS inactivation is know to cause an imbalance in nucleotide pools that subsequently promotes aberrant uracil incorporation into DNA (Berger S. H. et al. Biochemical Pharmacology 76:697-706 (2008)).

[4] = system: murine gastric and bladder tumors; conditions: immune-competent mice; cited from earlier work

T1 sequence (P43490 whole entry): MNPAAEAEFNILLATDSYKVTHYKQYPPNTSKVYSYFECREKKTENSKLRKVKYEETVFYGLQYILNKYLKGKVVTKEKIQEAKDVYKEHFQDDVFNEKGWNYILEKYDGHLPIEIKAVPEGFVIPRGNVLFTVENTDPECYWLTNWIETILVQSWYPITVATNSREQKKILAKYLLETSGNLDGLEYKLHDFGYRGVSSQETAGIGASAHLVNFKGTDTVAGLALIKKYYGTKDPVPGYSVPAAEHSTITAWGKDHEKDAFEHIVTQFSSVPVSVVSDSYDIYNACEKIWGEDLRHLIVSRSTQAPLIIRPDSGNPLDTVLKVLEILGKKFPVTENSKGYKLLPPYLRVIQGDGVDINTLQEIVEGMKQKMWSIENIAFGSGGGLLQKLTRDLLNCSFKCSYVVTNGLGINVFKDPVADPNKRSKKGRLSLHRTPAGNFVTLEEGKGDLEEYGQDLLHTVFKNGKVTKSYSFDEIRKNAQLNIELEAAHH

Compound | pIC50 (Human NAMPT) | IC50 at 72 h [2] | other results
COS(C)(=O)=O [methyl methanesulfonate (MMS), methyl methanesulfonate] | – | – | drug interaction (synergy, additivity, or antagonism) with Nampt inhibitor (HCT116 cells [1]): synergy
O=C(NCc1cccnc1)Nc1ccc(C[S+]([O-])c2ccccc2-c2ccccc2)cc1 (centres unmarked) [Example 210, 1-{4-[(biphenyl-2-ylsulfinyl)methyl]phenyl}-3-(pyridin-3-ylmethyl)urea] | ~8.20 | ~0.039 µM | –
O=c1[nH]c(CCCN2CC=C(c3ccccc3)CC2)nc2cccc(Cl)c12 [FR247304] | – | – | neuronal damage (PARP): attenuate neuronal damage
O=C(NCc1cccnc1)Nc1ccc(COc2cc(C(F)(F)F)ccc2Cl)cc1 [Example 164, 1-(4-{[2-Chloro-5-(trifluoromethyl)phenoxy]methyl}phenyl)-3-(pyridin-3-ylmethyl)urea] | ~8.74 | ~0.074 µM | –
CN(C)CCOc1cccc(-c2ccccc2CCOc2ccc(NC(=O)NCc3cccnc3)cc2)c1 [Example 797, 1-[4-(2-{3′-[2-(Dimethylamino)ethoxy]biphenyl-2-yl}ethoxy)phenyl]-3-(pyridin-3-ylmethyl)urea] | ~8.00 | – | –
N#C/N=C(\NCCOc1ccccc1-c1ccccc1)Nc1cccnc1 [Example 641, 1-[2-(Biphenyl-2-yloxy)ethyl]-2-cyano-3-pyridin-3-ylguanidine] | ~5.89 | ~3.2 µM | –
4-Fluoro-2-{2-[3- (morpholin-4- yl)azetidin-1- yl]pyridin-4-yl}- N-(4-{[(pyridin- 3-ylmethyl) carbamoyl] amino}phenyl) benzenesulfon- amide [Example 762] | – | – | pIC50 (HCT116 cells [3]): ~8.66
O=C(NCCCNS(=O)(=O)c1ccccc1-c1ccccc1)NCc1cccnc1 [Example 152, N-(3-{[(pyridin-3-ylmethyl)carbamoyl]amino}propyl)biphenyl-2-sulfonamide] | ~8.70 | ~0.055 µM | –
N#C/N=C(/NCC(=O)NCCOc1ccccc1-c1ccccc1)Nc1ccncc1 [Example 634, (Z)-N-[2-(Biphenyl-2-yloxy)ethyl]-N~2~- [(cyanoamino)(pyridin-4-ylamino)methylidene] glycinamide] | ~6.28 | ~5 µM | –
O=c1[nH]cc(F)c(=O)[nH]1 [5-fluorouracil (5-FU), 5-fluorouracil] | – | – | PARP activation (PARP in HCT116 cells): PARP activator
N#Cc1ccc(S(=O)(=O)Nc2ccc(NC(=O)NCc3cccnc3)cc2)c(Cl)c1 [Example 580, 2-Chloro-4-cyano-N-(4-{[(pyridin-3-ylmethyl)carbamoyl]amino}phenyl) benzenesulfonamide] | ~9.10 | ~0.1 µM | –
Oc1cccc(-c2nc(N3CCOCC3)c3oc4ncccc4c3n2)c1 [PI-103] | – | – | drug interaction (synergy, additivity, or antagonism) with Nampt inhibitor (HCT116 cells [1]): synergized
O=C(NCc1cccnc1)Nc1ccc(NS(=O)(=O)c2cc(C(=O)NCC3CCCN3)c(Cl)cc2F)cc1 (centres unmarked) [Example 831, 2-Chloro-4-fluoro-5-[(4-{[(pyridin-3-ylmethyl)carbamoyl]amino}phenyl)sulfamoyl]-N-(pyrrolidin-2-ylmethyl)benzamide] | ~8.00 | – | –
O=C(/C=C/c1cccnc1)NCCCCC1CCN(C(=O)c2ccccc2)CC1 [AP0866] | – | – | effect on tumor growth, co-administration with L-1MT [4]: additive inhibitory effect
O=C(c1cc(Cc2n[nH]c(=O)c3ccccc23)ccc1F)N1CCN(C(=O)C2CC2)CC1 [olaparib] | – | – | drug interaction (synergy, additivity, or antagonism) with Nampt inhibitor (HCT116 cells [1]): antagonism
O=C(NCc1cccnc1)Nc1ccc(OCCc2ccc(F)cc2-c2ccnc(N3CCNCC3)c2)cc1 [Example 759, 1-[4-(2-{4-Fluoro-2-[2-(piperazin-1-yl)pyridin-4-yl]phenyl}ethoxy)phenyl]-3-(pyridin-3-ylmethyl)urea] | – | ~0.0019 µM | –
C[C@H](Oc1ccccc1-c1ccccc1)c1nc(CNC(=O)NCc2cccnc2)cs1 [Example 363, 1-({2-[(1S)-1-(Biphenyl-2-yloxy)ethyl]-1,3-thiazol-4-yl}methyl)-3-(pyridin-3-ylmethyl)urea] | ~8.47 | ~0.29 µM | –
Cc1nc2ccc(CN(C)c3ccc(C(=O)N[C@@H](CCC(=O)O)C(=O)O)s3)cc2c(=O)[nH]1 [raltitrexed] | – | – | drug interaction (synergy, additivity, or antagonism) with Nampt inhibitor (HCT116 cells [1]): synergized
N#C/N=C(/NCc1ccc(COc2ccccc2-c2ccccc2)cc1)Nc1ccncc1 [Example 605, 1-{4-[(Biphenyl-2-yloxy)methyl]benzyl}-2-cyano-3-pyridin-4-ylguanidine] | ~8.62 | ~0.0011 µM | –
COc1cc(N/C(=N/C#N)NCc2ccc(NS(=O)(=O)c3ccccc3-c3ccccc3)cc2)ccn1 [Example 613, N-{4-[({(Z)-(Cyanoamino)[(2-methoxypyridin-4-yl)amino]methylidene}amino)methyl]phenyl} biphenyl-2-sulfonamide] | ~7.96 | ~2.6 µM | –
